Where “and” joins values, the source holds several entries; their conditions need not be identical. Equal values may be shown once. Read-outs that look alike come from different tables or passages of the source.
How the values were obtained:
[1] = cited from earlier work; for Imax,inlet,u: ka = 0.1 min^-1 assumed, ref 1 (Rodrigues AD 2023)
[2] = system: OATP1B1; conditions: cited from earlier work; for ∆CP-I Observed: AUC ratio or single CP-I concentration ratio ± perpetrator, ref 1 (Rodrigues AD 2023)
[3] = biological target: T1, OATP1B3 (Homo sapiens, UniProt Q9NPD5); conditions: CP-I 0.1 µM; 30-minute pre-incubation; HEK293; published data; ref 1 (Rodrigues AD 2023); cited from earlier work
T1 construct: expressed in transfected cells; host or cells: HEK293
T1 sequence (Q9NPD5 1-702): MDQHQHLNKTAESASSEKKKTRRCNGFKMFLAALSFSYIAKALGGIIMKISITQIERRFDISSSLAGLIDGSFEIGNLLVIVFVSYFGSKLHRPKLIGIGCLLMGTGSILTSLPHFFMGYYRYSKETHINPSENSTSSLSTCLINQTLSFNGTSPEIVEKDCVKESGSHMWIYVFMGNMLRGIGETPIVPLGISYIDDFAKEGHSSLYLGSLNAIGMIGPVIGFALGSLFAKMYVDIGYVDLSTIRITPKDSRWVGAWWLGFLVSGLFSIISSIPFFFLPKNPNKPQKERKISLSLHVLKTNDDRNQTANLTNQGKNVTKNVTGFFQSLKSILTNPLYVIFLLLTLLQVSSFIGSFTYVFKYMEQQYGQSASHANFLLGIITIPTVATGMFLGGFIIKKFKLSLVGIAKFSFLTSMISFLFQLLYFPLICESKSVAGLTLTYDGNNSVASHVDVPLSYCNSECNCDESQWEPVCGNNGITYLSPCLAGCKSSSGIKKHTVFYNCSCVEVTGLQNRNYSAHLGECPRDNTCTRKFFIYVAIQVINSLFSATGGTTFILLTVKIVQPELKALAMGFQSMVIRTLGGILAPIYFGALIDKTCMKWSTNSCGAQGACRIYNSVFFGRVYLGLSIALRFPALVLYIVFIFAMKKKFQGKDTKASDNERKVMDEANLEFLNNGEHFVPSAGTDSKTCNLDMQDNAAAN

[4] = biological target: T2, OATP1B1 (Homo sapiens, UniProt Q9Y6L6); conditions: CP-I 0.1 µM; 30-minute pre-incubation; HEK293; published data; ref 1 (Rodrigues AD 2023); cited from earlier work
T2 construct: expressed in transfected cells; host or cells: HEK293
T2 sequence (Q9Y6L6 1-691): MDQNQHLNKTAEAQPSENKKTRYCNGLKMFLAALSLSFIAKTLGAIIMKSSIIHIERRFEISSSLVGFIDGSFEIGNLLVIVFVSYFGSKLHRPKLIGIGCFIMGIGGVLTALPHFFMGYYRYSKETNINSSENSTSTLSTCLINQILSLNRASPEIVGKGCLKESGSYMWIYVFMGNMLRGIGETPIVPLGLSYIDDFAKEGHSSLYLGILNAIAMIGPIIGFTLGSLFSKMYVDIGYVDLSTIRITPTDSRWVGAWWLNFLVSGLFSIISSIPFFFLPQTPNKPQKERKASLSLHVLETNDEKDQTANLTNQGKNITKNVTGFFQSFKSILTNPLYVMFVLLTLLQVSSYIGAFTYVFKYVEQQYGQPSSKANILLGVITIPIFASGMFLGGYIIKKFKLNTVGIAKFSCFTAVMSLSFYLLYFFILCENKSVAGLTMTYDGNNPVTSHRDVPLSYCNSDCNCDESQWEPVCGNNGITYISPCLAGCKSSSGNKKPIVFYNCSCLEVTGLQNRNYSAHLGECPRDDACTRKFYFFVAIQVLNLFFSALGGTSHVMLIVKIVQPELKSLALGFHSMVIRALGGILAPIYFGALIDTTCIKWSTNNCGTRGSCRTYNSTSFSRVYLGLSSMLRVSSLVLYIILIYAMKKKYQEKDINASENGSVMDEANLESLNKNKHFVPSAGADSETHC

[5] = system: OATP1B1; experiment: Plasma CP-I as endogenous biomarker of OATP1B1 in clinical DDI studies; assay type: in vivo, human; set-up: AUC24 / Cmax: unit not given beside the values; conditions: for AUC24 / Cmax: geometric mean (%CV)
Description: Blood and urine samples were collected at prespecified timepoints. Rosuvastatin plasma samples (~ 6 mL) were collected predose and at 0.5, 1, 2, 3, 4, 5, 6, 8, 10, 12, 16, 24, 36, 48, and 72 h postdose. CP-I and PDA plasma samples (~ 6 mL) were collected predose and at 0.5, 1, 2, 3, 4, 5, 6, 8, 10, 12, 16, and 24 h post rosuvastatin dosing. Rosuvastatin urine samples were collected at predose, 0–6 h, 6–12, 12–24, 24–48, and 48–72 h postdose. Each participant emptied their bladder just prior to dosing.
Quantification of CP-I was conducted by mass spectrometry according to King-Ahmad et al.. Plasma samples were spiked with stable label internal standard (^15N4-coproporphyrin I). CP-I was isolated through supported liquid extraction. The eluate was evaporated under a nitrogen stream at approximately 45 °C, and the remaining residue was reconstituted with 125 μL of water/acetonitrile/formic acid (750:250: 1, v/v/v). The final extract was analyzed via UPLC® with column switching and MS/MS detection using positive ion electrospray. A linear, 1/x^2 weighted, least-squares regression algorithm was used to quantitate sample concentrations.
The PK parameters for rosuvastatin, CP-I and PDA were calculated for each participant and each treatment using Pfizer’s internally validated electronic noncompartmental analysis software (eNCA) version 2.4.4. Samples below the lower limit of quantitation were set to zero for the PK analysis. Actual sample collection times were used for the PK analysis.
Natural log transformed area under the plasma concentration-time profile from time 0 extrapolated to infinity (AUCinf), maximum plasma concentration (Cmax), and apparent renal clearance (CLr) were analyzed using a mixed effect model with treatment as a fixed effect and participant as a random effect (SAS version 9.4; SAS Institute, Cary, NC, USA). Estimates of the adjusted mean differences (Test-Reference) and corresponding 90% CIs were obtained from the model. The adjusted mean difference and 90% CIs for the differences were exponentiated to provide estimates of the ratio of adjusted geometric means (Test/Reference) and 90% CIs for the ratios. Rosuvastatin alone was the reference treatment, while the rosuvastatin coadministered with ritlecitinib was the Test treatment.

[6] = rosuvastatin 10 mg + ritlecitinib 200 mg QD
[7] = with vs without ritlecitinib 200 mg QD

CO[C@H]1/C=C/O[C@@]2(C)Oc3c(C)c(O)c4c(O)c(c(/C=N/N5CCN(C)CC5)c(O)c4c3C2=O)NC(=O)/C(C)=C\C=C\[C@H](C)[C@H](O)[C@@H](C)[C@@H](O)[C@@H](C)[C@H](OC(C)=O)[C@@H]1C [Rifampicin]
Imax,inlet,u ([1]; inhibitor dose 150 mg): 3 µM | Imax,inlet,u ([1]; inhibitor dose 300 mg): 5.9 µM | Imax,inlet,u ([1]; inhibitor dose 600 mg): 11.9 µM | ∆CP-I Observed ([2]; inhibitor dose 150 mg): 1.5 | ∆CP-I Observed ([2]; inhibitor dose 300 mg): 2.4 and 2.3 | ∆CP-I Observed ([2]; inhibitor dose 600 mg): 3.5 and 3.7 and 4 and 5.6 | IC50 [3]: 300 nM

C[C@H]1CCN1c1nc(N2C[C@@H]3[C@@H](CC(=O)O)[C@@H]3C2)cc(C(F)(F)F)n1 [PF-06835919]
Imax,inlet,u ([1]; inhibitor dose 50 mg): 1.5 µM | Imax,inlet,u ([1]; inhibitor dose 100 mg): 2.5 µM | Imax,inlet,u ([1]; inhibitor dose 280 mg): 8.2 µM | Imax,inlet,u ([1]; inhibitor dose 400 mg): 10.3 µM | Imax,inlet,u ([1]; inhibitor dose 600 mg): 15.3 µM | ∆CP-I Observed ([2]; inhibitor dose 50 mg): 1.1 | ∆CP-I Observed ([2]; inhibitor dose 100 mg): 1.2 | ∆CP-I Observed ([2]; inhibitor dose 280 mg): 1.5 | ∆CP-I Observed ([2]; inhibitor dose 400 mg): 1.3 | ∆CP-I Observed ([2]; inhibitor dose 600 mg): 1.8 | IC50 [3]: 5600 nM | IC50 [4]: 4300 nM

C[C@H]1CN(C2COC2)CCN1c1ccc(Nc2cc(-c3ccnc(N4CCn5c(cc6c5CC(C)(C)C6)C4=O)c3CO)cn(C)c2=O)nc1 [Fenebrutinib]
Imax,inlet,u ([1]; inhibitor dose 200 mg): 4.2 µM | ∆CP-I Observed ([2]; inhibitor dose 200 mg): 1 | IC50 [3]: 1200 nM | IC50 [4]: 6100 nM

CC/C(=C(/c1ccc(/C=C/C(=O)O)cc1)c1ccc2[nH]ncc2c1)c1ccc(F)cc1Cl [GDC-0810]
Imax,inlet,u ([1]; inhibitor dose 600 mg): 0.009 µM | ∆CP-I Observed ([2]; inhibitor dose 600 mg): 1.5 | IC50 [3]: 900 nM | IC50 [4]: 200 nM

O=C(O)[C@H]1C2CCC(CC2)[C@@H]1Nc1nc(-c2c[nH]c3ncc(F)cc23)ncc1F [Pimodivir]
Imax,inlet,u ([1]; inhibitor dose 600 mg): 0.4 µM | ∆CP-I Observed ([2]; inhibitor dose 600 mg): 1.4 | IC50 [3]: 1100 nM | IC50 [4]: 500 nM

COc1ccc2c(O[C@@H]3C[C@H]4C(=O)N[C@]5(C(=O)NS(=O)(=O)C6CC6)C[C@H]5/C=C\CCCCN(C)C(=O)[C@@H]4C3)cc(-c3nc(C(C)C)cs3)nc2c1C [Simeprevir]
Imax,inlet,u ([1]; inhibitor dose 150 mg): 0.002 µM | ∆CP-I Observed ([2]; inhibitor dose 150 mg): 1.4 | IC50 [3]: 500 nM | IC50 [4]: 1000 nM

CC(=O)O[C@H]1C(=O)[C@@]2(C)[C@H]([C@H](OC(=O)c3ccccc3)[C@]3(O)C[C@H](OC(=O)[C@H](O)[C@@H](NC(=O)c4ccccc4)c4ccccc4)C(C)=C1C3(C)C)[C@]1(OC(C)=O)CO[C@@H]1C[C@@H]2O [Paclitaxel]
∆CP-I Observed ([2]; inhibitor dose 200 mg): 2.8 | IC50 [3]: 700 nM

coproporphyrin I [CP-I]
AUC24 [5, 6]: 8729 (21) | Cmax [5, 6]: 418.8 (19) | AUC24 ([5]; rosuvastatin 10 mg alone): 8915 (21) | Cmax ([5]; rosuvastatin 10 mg alone): 427.1 (22) | AUC24 % Ratio (Test/Reference) of Adjusted Geometric Means (90% CI) [5, 7]: 97.91 (92.24, 103.94) % | Cmax % Ratio (Test/Reference) of Adjusted Geometric Means (90% CI) [5, 7]: 98.06 (93.13, 103.26) % | increase in exposure (AUC24) ([2]; plasma CP-I with coadministration of rifampicin vs rosuvastatin alone): 4.0 fold

CCCN(CCC)S(=O)(=O)c1ccc(C(=O)O)cc1 [Probenecid]
Cmax,u ([1]; inhibitor dose 1000 mg): 22 µM | Imax,inlet,u ([1]; inhibitor dose 1,000 mg): 56.6 µM | ∆CP-I Observed ([2]; inhibitor dose 1,000 mg): 1.4 | IC50 [3]: 118000 nM

CCC(C)n1ncn(-c2ccc(N3CCN(c4ccc(OCC5COC(Cn6cncn6)(c6ccc(Cl)cc6Cl)O5)cc4)CC3)cc2)c1=O (stereo not drawn) [Itraconazole]
Imax,inlet,u ([1]; inhibitor dose 200 mg): 0.3 µM | ∆CP-I Observed ([2]; inhibitor dose 200 mg): 0.9 | IC50 [3]: 20000 nM | IC50 [4]: 20000 nM

COc1ccc([C@@H]2Sc3ccccc3N(CCN(C)C)C(=O)[C@@H]2OC(C)=O)cc1 [Diltiazem]
IC50 [3]: 175000 nM | IC50 [4]: 100000 nM

Source: article PMC10733197, “Utilization of Rosuvastatin and Endogenous Biomarkers in Evaluating the Impact of Ritlecitinib on BCRP, OATP1B1, and OAT3 Transporter Activity” (Pharmaceutical Research, 2023)
